Counter-ions that a name gives are not always drawn.
How the values were obtained:
[1] = target: T1, α1b (Hamster) adrenoreceptor (Mesocricetus auratus, UniProt P18841); assay: [3H]-prazosin radioligand binding, cloned α1b (hamster) adrenoreceptor in LTK cells; settings: cloned receptor in LTK cell membranes, [3H]prazosin 0.2 nM
T1 sequence (P18841 1-515): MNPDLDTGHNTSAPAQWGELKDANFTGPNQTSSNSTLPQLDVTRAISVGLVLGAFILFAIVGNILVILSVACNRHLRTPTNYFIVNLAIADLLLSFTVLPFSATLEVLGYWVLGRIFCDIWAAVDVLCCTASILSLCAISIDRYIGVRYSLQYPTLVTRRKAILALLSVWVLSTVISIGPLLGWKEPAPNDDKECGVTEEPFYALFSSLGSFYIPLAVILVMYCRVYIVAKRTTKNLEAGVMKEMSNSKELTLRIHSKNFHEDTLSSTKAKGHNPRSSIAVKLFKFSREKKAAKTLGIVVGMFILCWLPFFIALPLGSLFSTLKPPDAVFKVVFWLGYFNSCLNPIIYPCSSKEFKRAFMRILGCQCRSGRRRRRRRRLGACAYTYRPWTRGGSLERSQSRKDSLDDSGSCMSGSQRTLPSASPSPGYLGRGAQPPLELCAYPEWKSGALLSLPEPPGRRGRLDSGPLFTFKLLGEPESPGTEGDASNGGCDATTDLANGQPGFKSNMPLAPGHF
Description: (§1) The cDNA clones encoding the α1, adrenoreceptors were obtained from TULCO (Triangle Universities Licensing Consortium, Research Triangle Park, N.C.) and inserted into the eukaryotic expression vector SnaB30. In this vector, expression of the adrenoreceptor gene is under the transcriptional control of an SV40 early promoter. Positive drug selection is provided by a neomycin-resistance gene. Mouse fibroblast cells (LTK) were transfected with the α1 expression plasmids and grown in Dulbecco's modified Eagle's medium (DMEM) containing 10% fetal calf serum and 30 μM G418. […] Stable single cell clones derived from the parental lines were screened in adrenoreceptor binding assays to identify clones having high adrenoreceptor density. Roller bottle cultures of the cloned lines were used to provide cell membranes for subsequent adrenoreceptor binding characterization studies. A cell line containing the SnaB30 vector expressing the human erythropoietin gene served as a negative control.
(§2) For adrenoreceptor binding assays, large scale membrane preparations were utilized in which 6 million cells were seeded into small (450 cm^2) Coming tissue culture roller bottles. DMEM (200 mL) containing 10% fetal calf serum and 300 μM G418 were added to each roller bottle. A 95% air/5% CO2 gas mixture (sterile) was injected into each roller bottle prior to sealing, and the bottles were then incubated at 37° C. on a roller rack for 5 days. Cells were refed with fresh medium after 3 days in culture.
(§3) On the fifth day of culture, growth medium was removed from cells grown in roller bottles, and the cells were washed twice with PBS (Sigma, 120 mM NaCl, 2.7 mM KCl, 10 mM Na2HPO4-NaH2PO4, pH=7.4). Cells were detached from the roller bottles by incubating for 15 minutes at 37° C. in a Tris-EDTA solution (10 mM Tris, 100 mM NaCl, 1 mM EDTA, pH=7.4). The cell suspension from each roller bottle was decanted into tared centrifuge tubes and kept on ice. An aliquot of each cell suspension was generally taken for cell counting. Cells were centrifuged at 3000×G for 5 minutes at 2-4° C., washed with PBS and recentrifuged. The supernatant was decanted, and the pellet was weighed to determine the wet weight of cells. Cells were washed a final time in 40 vol 5 mM Tris-HCl, 5 mM EDTA, pH=7.7 and centrifuged at 40,000×G for 10 minutes (“vol” indicates volume/weight, e.g., a “vol” of 40 would indicate that the one gram of cells were washed with 40 mls of buffer). Cells were homogenized in of 50 mM Tris-HCl, 5 mM EDTA (pH=7.4) (10 mL) and diluted to 40 mL/tube. Homogenates were centrifuged at 40,000×G for 10 minutes. The supernatant was decanted and the pellets rehomogenized in 50 mM Tris-HCl (pH=7.4) and centrifuged as before.
(§4) Following equilibration, bound radioligand was separated from free on GF/B filters (presoaked in 0.5% polyethyleneimine) using ither a Brandel or Packard cell harvester. Radioactivity was determined by standard liquid scintillation techniques.

α1a (rat) adrenoreceptor = target: T2, α1a (rat) adrenoreceptor (Rattus norvegicus, UniProt P43140); assay: [3H]-prazosin radioligand binding, cloned α1a (rat) adrenoreceptor in LTK cells; settings: cloned receptor in LTK cell membranes, [3H]prazosin 0.2 nM
T2 sequence (P43140 1-466): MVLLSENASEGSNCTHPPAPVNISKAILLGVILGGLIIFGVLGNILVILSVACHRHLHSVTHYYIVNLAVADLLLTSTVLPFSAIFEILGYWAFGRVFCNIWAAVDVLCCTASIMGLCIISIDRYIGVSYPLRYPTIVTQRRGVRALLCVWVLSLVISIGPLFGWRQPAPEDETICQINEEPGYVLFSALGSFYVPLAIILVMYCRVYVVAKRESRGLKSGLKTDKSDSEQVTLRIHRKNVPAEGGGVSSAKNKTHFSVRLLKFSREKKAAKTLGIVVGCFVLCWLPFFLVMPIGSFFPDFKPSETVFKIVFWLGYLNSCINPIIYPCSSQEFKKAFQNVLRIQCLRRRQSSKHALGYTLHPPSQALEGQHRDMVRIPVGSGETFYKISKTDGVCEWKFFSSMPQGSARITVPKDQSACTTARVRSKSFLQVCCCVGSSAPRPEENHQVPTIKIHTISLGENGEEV
Description: as §1, §2, §3, §4

Compound | Ki [1] | Ki (α1a (rat) adrenoreceptor)
O=c1[nH]c2c(sc3cccnc32)c(=O)n1CCCN1CCN2c3ccccc3OCC2C1 (single isomer, unassigned; (-)) [Example 2, (−) 3-[3-(1,2,4a,5-tetrahydropyrazino[2,1-c][1,4]benzoxazin-3(4H)-yl)propyl]pyrido[2′,3′:4,5]thieno[3,2-d]pyrimidine-2,4(1H,3H)-dione dihydrochloride] | 24.6 nM | 19.3 nM
Cl.Cl.O=c1[nH]c2c(sc3ncccc32)c(=O)n1CCCCN1CCN2c3ccccc3OCC2C1 (single isomer, unassigned; (-)) [Example 6, (−) 3-[4-(1,2,4a,5-tetrahydropyrazino[2,1-c][1,4]benzoxazin-3(4H)-yl)butyl]pyrido[3′, 2′:4,5]thieno[3,2-d]pyrimidine-2,4(1H,3H)-dione dihydrochloride] | 27.3 nM | 9.83 nM

Reference: patent publication US6376488B1, “Benzoxazine α-1 adrenergic compounds” (Abbott Laboratories, priority 2000, dated 2002)
